Test results taken from patent publication US7534455B2, “Herbal composition PHY906 and its use in chemotherapy” (Yale University, priority 2000, dated 2009).
Read-outs that look alike come from different tables or passages of the source. Each block holds one compound with its values, some of them ahead of it.

Key:
[1] = Pharmacokinetics of CPT-11/FU/LV in BDF-1 mice bearing Colon 38 tumor; type: in vivo; settings: triple combination CPT-11/FU/LV
Text: The pharmacokinetic data of CPT-11/FU/LV in BDF-1 mice bearing Colon 38 tumor in the presence and absence of PHY906 are shown in FIGS. 18-20. PHY906-6 is a clinical batch of PHY906, containing 10% excipient (starch).

colorectal cancer = settings: cited from earlier work; for Median survival time / Median time to disease progression: NS
[2] = Pharmacokinetics of gemcitabine (dFdC) and dFdU in plasma of PAN02 bearing BDF-1 mice; type: in vivo; settings: for AUC, dFdC + PHY906: PHY906 500 mg/kg 30 min before gemcitabine; for AUC, dFdC alone: gemcitabine 600 mg/kg
Method: (§1) Plasma Handling: The mouse plasma was separated from the blood by centrifugation at 10,000 g at 4° C. for 10 min.
b) Gemcitabine-containing plasma: The plasma (50 μl) was extracted with 200 μl of acetonitrile (ACN) in the presence of 5 μl of 0.1 mM AZT as an internal standard. After centrifugation, the supernatant was dried by a Speedvac, reconstituted with 100 μl of solution containing 2.5% ACN and 97.5% of 15 mM ammonium acetate (pH 5.0).
(§2) The resultant analyte was then analyzed by HPLC with UV absorption and/or radioactivity.
To determine, for a future clinical trial, if PHY906 would change the metabolism of gemcitabine, a pharmacokinetics analysis in mice bearing pancreatic cancer was performed. Mice were divided into three sets of 15: gemcitabine only, gemcitabine plus PHY906, and vehicle control. Each mouse in the set was bled twice at two different time points. Plasma was processed as described in Materials and Methods and analyzed by HPLC with radioactivity confirmation of peak identity and quantitation.

[3] = Pharmacokinetics of capecitabine in animal models; type: in vivo, mouse
Method: as §1
a) Capecitabine-containing sample: The plasma (50 μl) was extracted with 200 μl of acetonitrile in the presence of 10 μl of 5-iodouracil (IU)(50 μg/ml) as an internal standard. After centrifugation, the supernatant from capecitabine-containing sample was dried by a speedvac, reconstituted with 50 μl of 0.1 M sodium acetate buffer (pH 4.8), and extracted with 1.3 ml of water-saturated ethyl acetate. The organic layer was separated after centrifugation (10,000 g at 4° C. for 10 min), dried by a speedvac and reconstituted with 100 μl of water.
as §2

hepatocellular carcinoma = settings: cited from earlier work
[4] = Host toxicity (body weight loss, mortality, blood cell counts) in chemotherapy treated BDF-1 mice bearing Colon 38 tumor; type: in vivo
Method: Anti-Tumor Studies: Murine Colon 38 (1-2×10^6 cells in 0.1 ml PBS) or human HepG2 cells (1-2×10^6 cells in 0.1 ml PBS) were transplanted subcutaneously into BDF1 or NCr athymic nude mice, respectively. The length and width of the tumors were measured daily with sliding calipers. The tumor weight was estimated according to the following formula (Pizzorno G, Wiegand R, Lentz S, et al., Cancer Res. 52:1660-1665 (1992)): Tumor weight (mg)=length (mm)×width (mm)^2/2.
After 10 to 14 days, mice (five animals/group) with tumor weights ranging from 150-200 mg were selected for drug studies (Guo X, Lerner-Tung M, Chen H X, et al., Biochem Pharmacol 49:1111-1116 (1995)). Mice were sacrificed when the tumor size reached 10% of body weight. PHY906 was administered orally either alone or with anti-cancer chemotherapeutic agents. The effect of PHY906 on antitumor efficacy and the reduction of toxicity by the agents were evaluated. CPT-11 was given intraperitoneally (i.p.) 30 min after PHY906 administration with the selected dose. The regimen of FU/LV combination therapy was given as follows:
The first day of treatment was defined as day 0. PHY906 was given orally twice a day (10 am and 3 pm) for either 4 or 8 days beginning on day 0. For the control group, mice were administrated a vehicle, either PBS for i.p. or H2O for p.o. (oral administration). Animals were monitored for mortality, weight loss, and tumor size daily.
Blood Cell Counts: Blood (20 μl) was taken from mice on days 0, 3, 6, 9 and 12 with micro-capillary tubes. Blood was then be diluted to 200 μl with normal saline (0.85% Sodium Chloride). WBC, RBC and platelets were counted by a BAKER SYSTEM 9100™ […] (Biochem ImmunoSystems Inc., Allentown, Pa. 18103-9562).
PHY906 was evaluated as a modulator of CPT-11 therapy for toxic side effects in mice inoculated with Colon 38 tumor cells. Based on the previous findings (Example 2), a single bolus dose of 400 mg/kg CPT-11 was selected to study the effect of PHY906 on weight-loss associated with toxicity of CPT-11. To evaluate whether PHY906 impairs the antitumor efficacy of CPT-11, mice were implanted subcutaneously with Colon 38 tumor cells. Ten to 14 days after inoculation, mice were treated with CPT-11 (400 mg/kg, i.p.) in the absence or presence of PHY906, which was given orally twice a day at varying doses (125 mg/kg, 250 mg/kg, and 500 mg/kg). PHY906 treatment was continued at the dose indicated for 8 consecutive days.
Mice were divided into four groups with different treatment regimens: Group (A) treatment with vehicle; Group (B) treatment with a single dose of 400 mg/kg CPT-11 by i.p. injection; Group (C) treatment with PHY906 (500 mg/kg/b.i.d.) alone; or Group (D) treatment with a single dose of 400 mg/kg CPT-11 plus 500 mg/kg/b.i.d. PHY906 for 4 or 8 days. The sequence of each treatment regimen appears in Materials and Methods. As depicted in Table 9, 35 of 35 tumor-bearing mice (100%) from Group A and 15 of 15 mice (100%) from Group C survived treatment with either vehicle or PHY906 alone for 4 or 8 days, indicating no or very low toxicity for PHY906.

[5] = Toxicity (tolerable dose, body weight loss, death) in nude mice bearing human HepG2 xenografts; type: in vivo, NCr-nude mice
Method: Weight loss was observed immediately after CPT-11 treatment and continued for six days in mice injected with 400 mg/kg of CPT-11. These animals gradually recovered their original body weight on day 12. […] The maximum tolerable dose of CPT-11 in nude mice bearing the human HepG2 xenografts was 200 mg/kg (data not shown).
Human HepG2 tumor cells were implanted into NCr-nude mice to test the effect of PHY906 on the antitumor activity of CPT-11. […] CPT-11 (200 mg/kg, i.p.) was given on day 0. PHY906 was given twice daily at 500 mg/kg starting on day 0.
Based upon the known pharmacological profiles of herbs contained in PHY906, it was speculated that the enhancing effects might act through immunological and/or hematological systems in normal mice. Therefore, experiments were designed to test the hypothesis in nude mice, which are deficient in immunological and hematological systems. Human hepatocellular carcinoma HepG2 cells were implanted into NCr-nude mice to test the effect of PHY906 on the antitumor activity of CPT-11. […] CPT-11 (200 mg/kg, i.p.) was given on day 0. PHY906 was given twice daily at 500 mg/kg starting on day 0 and continued for 8 days. As shown in 31, PHY906 enhanced the antitumor effect of CPT-11 on human HepG2 xenografts in nude mice.

[6] = Determination of CPT-11 dose in non-tumor bearing BDF-1 mice (weight loss, death); type: in vivo; settings: single i.p. bolus
Method: Animal weight loss was monitored as an indication of toxicity caused by anticancer chemotherapy agents. The effect of CPT-11 on weight loss in non-tumor bearing BDF-1 mice was studied using six different dosages: 100, 200, 300, 400, 600, or 800 mg/kg body weight to determine the maximum tolerable dose in mice. A single bolus dose of CPT-11 was administered intraperitoneally (i.p.) at the beginning of the study, and weight loss was monitored daily for 12 days.
One dose of CPT-11 was administered i.p. to each mouse at the beginning of the study, and the weight loss of the animal was then monitored daily for 12 days.

[7] = CPT-11 400 mg/kg, 1 day, alone, observed 14 days

AUCs of FU and its nucleoside/nucleotide metabolites (FU+FUR+FUMP) in plasma or liver after PHY906 co-administration [1]: change
SMILES: O=c1[nH]cc(F)c(=O)[nH]1 [FU, 5-fluorouracil]
Response rate in patients with advanced disease (colorectal cancer; human, in vivo): 10%-12%

Cmax, dFdC + PHY906 ([2]; Radioactivity detection): 48 µg/mL
Cmax, dFdC alone ([2]; Radioactivity detection): 31 µg/mL
Tmax, dFdC + PHY906 ([2]; Radioactivity detection): 2 h
Tmax, dFdC alone ([2]; Radioactivity detection): 1 h
T½, dFdC + PHY906 ([2]; Radioactivity detection): 0.82 h
T½, dFdC alone ([2]; Radioactivity detection): 1.55 h
AUC, dFdC + PHY906 ([2]; Radioactivity detection): 8.5 mg·min/mL
AUC, dFdC alone ([2]; Radioactivity detection): 5.8 mg·min/mL
Cmax, dFdC + PHY906 ([2]; UV detection): 22 µg/mL
Cmax, dFdC alone ([2]; UV detection): 14 µg/mL
Tmax, dFdC + PHY906 ([2]; UV detection): 2 h
Tmax, dFdC alone ([2]; UV detection): 1 h
T½, dFdC + PHY906 ([2]; UV detection): 1.16 h
T½, dFdC alone ([2]; UV detection): 1.64 h
AUC, dFdC + PHY906 ([2]; UV detection): 4.4 mg·min/mL
AUC, dFdC alone ([2]; UV detection): 3.1 mg·min/mL
Levels in circulation in the presence or absence of PHY906 ([2]; plasma): not a dramatic difference
SMILES: O=c1ccn(C2OC(CO)C(O)C2(F)F)c(=O)[nH]1 (stereo not shown) [dFdU]

SMILES: CCCCCOC(=O)Nc1nc(=O)n([C@@H]2O[C@H](C)[C@@H](O)[C@H]2O)cc1F [capecitabine, 5′-deoxy-5-fluoro-N-[(pentyloxy)carbonyl]-cytidine]
Pharmacokinetic profile on co-administration of PHY906 [3]: did not alter the pharmacokinetic profile
Median survival time (colorectal cancer; Hoff et al. 2001): 380 days
Median time to disease progression (colorectal cancer; Hoff et al. 2001): 128 days
Response rate (colorectal cancer; Hoff et al. 2001, P=0.0014): 21%
Median survival time (colorectal cancer; Van Cutsem et al. 2001): 404 days
Median time to disease progression (colorectal cancer; Van Cutsem et al. 2001): 137 days
Response rate (colorectal cancer; Van Cutsem et al. 2001, P=0.027): 21%
Response rate (hepatocellular carcinoma; 55 patients with nonresectable hepatobiliary carcinoma): 13%
Response rate (hepatocellular carcinoma; hepatocellular carcinoma / liver cancer, systemic chemotherapy): 13%

SMILES: CCc1c2c(nc3ccc(O)cc13)-c1cc3c(c(=O)n1C2)COC(=O)[C@]3(O)CC [SN-38]
Level in plasma, liver, or tumor after PHY906 co-administration [1]: remains unchanged

SMILES: COc1cccc2c1C(=O)c1c(O)c3c(c(O)c1C2=O)C[C@@](O)(C(=O)CO)C[C@@H]3O[C@H]1C[C@H](N)[C@H](O)[C@H](C)O1 [doxorubicin, Doxorubicin]
Response rate (hepatocellular carcinoma; eight trials, 475 evaluable patients (range 0-35%)): 16%

SMILES: CCc1c2c(nc3ccc(OC(=O)N4CCC(N5CCCCC5)CC4)cc13)-c1cc3c(c(=O)n1C2)COC(=O)[C@]3(O)CC [CPT-11, Irinotecan]
Survival [4, 7]: 82.5%
Total No. of Mice Survived N [4, 7]: 33
Animal Death (Death/Total) ([4]; CPT-11 treated mice, observed for 14 days): 7/40
Level in tumor or liver tissues after PHY906 co-administration [1]: no significant change
AUC in plasma after co-administration of PHY906 ([1]; PHY906-6): increases
Maximum tolerable dose [5]: 200 mg/kg
Response rate, second-line therapy (colorectal cancer; advanced colorectal cancer): 10%-15%
Dosages with little effect on body weight [6]: lower than 200 mg/kg
Doses resulting in animal death on the second day [6]: greater than or equal to 600 mg/kg
Doses mice were able to tolerate ([6]; 12 days): up to 400 mg/kg
